The source of these data is patent EP3722296B1, “DIHYDRONAPHTHYRIDINES AND RELATED COMPOUNDS USEFUL AS KINASE INHIBITORS FOR THE TREATMENT OF PROLIFERATIVE DISEASES” (Deciphera Pharmaceuticals, LLC, priority 2012, dated 2013).

Assay [1] relates to Phospho-KIT (Tyr719). As to the kind of experiment: GIST48 KIT Western Blot. It is filed as cell-based. Conditions: GIST48 cells, 4 hours, serum-free medium; read-out: pKIT suppression by western blot analysi GIST48. An outline of the steps:
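Phospho-KIT (Tyr719) was immunoblotted on PVDF and imaged in fluorescence mode after ECL Plus, with stripping and reprobing for total KIT. IC50 values were derived from the blot signals.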
Background: A western blot detects proteins with antibodies after separation by electrophoresis.

A further assay has as its target T1, c-KIT T670I kinase (Homo sapiens, UniProt P10721, T670I).
T1 construct: The construct contains residues T544-V976 of cKit; GST (N); TEV cleavage site (internal); purchased deCODE Biostructures
As to the kind of experiment: c-KIT T670I kinase assay. Type of assay: biochemical. Conditions: enzymatic assay. The essentials:
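Enzyme: GST-fused, N-terminally tagged cKit bearing T670I, with TEV cleavage site. Reaction started by mixing compound dilutions with reaction mix; activity read continuously over 5 h at 30 °C as loss of 340 nm absorbance from NADH consumption.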

Assay [2] deals with T2, Phospho-KIT (Tyr719) (Homo sapiens, UniProt P10721, K642E).
T2 construct: endogenous in cells; host or cells: GIST882
Kind of assay: GIST882 KIT Western Blot. Type of assay: cell-based. The settings on record: GIST882 cells, 4 hours, serum-free medium; read-out: pKIT suppression by western blot analysi GIST 882. The protocol:
GIST48, GIST430, and GIST882 cells were obtained from J. Fletcher (Brigham and Women's Hospital, Boston, MA). GIST T1 cells were obtained from B. Rubin (Cleveland Clinic, Cleveland, OH) and Professor Takahiro Taguchi (Kochi Medical School, Nankoku, Kochi, Japan). […] GIST430 cells were grown in Ham's F10 medium supplemented with 15% characterized fetal bovine serum (Invitrogen, Carlsbad, CA), 30 mg/L bovine pituitary extract (BD Biosciences, San Jose, CA), 0.5% Mito+ serum extender (BD Biosciences, San Jose, CA), 1 unit/mL penicillin G, 1 µg/ml streptomycin, and 0.29 mg/mL L-glutamine at 37 °C, 5%CO2, 95% humidity. GIST T1 cells were grown in DMEM medium supplemented with 10% characterized fetal bovine serum (Invitrogen, Carlsbad, CA), 1 unit/mL penicillin G, 1 µg/ml streptomycin, and 0.29 mg/mL L-glutamine at 37 °C, 5% CO2, and 95% humidity.
Two hundred fifty thousand cells were added per well in a 24-well tissue-culture treated plate. […] Medium was aspirated, cells were washed with PBS, and serum-free RPMI1640 medium was added. […] Cells were washed with PBS, then lysed. Cell lysates were separated by SDS-PAGE and transferred to PVDF. Phospho-KIT (Tyr719) was detected using an antibody from Cell Signaling Technology (Beverly, MA), ECL Plus detection reagent (GE Healthcare, Piscataway, NJ) and a Molecular Devices Storm 840 phosphorimager in fluorescence mode. Blots were stripped and probed for total KIT using an antibody from Santa Cruz Biotech (Santa Cruz, CA). IC50 values were calculated using Prism software (Graphpad, San Diego, CA).

The target in a further assay is c-KIT kinase (Homo sapiens, UniProt P10721). Kind of assay: c-KIT kinase Assay. It is filed as biochemical. On the set-up: cKIT residues T544-V976; GST (N); TEV cleavage site (internal); purchased deCODE Biostructures. Conditions: enzymatic assay, ATP 200 µM; read-out: KIT (wt) IC50. An outline of the steps:
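This continuous spectrophotometric assay tracked c-KIT kinase turnover through NADH consumption at 340 nm, recorded for 2 hours at 30 °C. The enzyme construct from deCODE Biostructures carried an N-terminal tag, a GST-fusion sequence and a TEV cleavage site. Percent inhibition came from reaction rates over 0 to 1 h relative to a no-compound control, and IC50 values were derived with GraphPad Prism.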

Assay [3] has as its system Phospho-KIT (Tyr719). Kind of assay: GIST430 KIT Western Blot. Conditions: GIST430 cells, 4 hours, serum-free medium; read-out: pKIT suppression by western blot analysi GIST430. Type of assay: cell-based. The essentials:
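GIST430 cells were compound-treated in serum-free Ham's F10, then lysed. Phospho-KIT (Tyr719) was measured by western blot with fluorescence-mode ECL, and blots were reprobed for total KIT; IC50 derived from concentration response.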

The target of a further assay is T3, c-KIT D816V kinase (Homo sapiens, UniProt P10721, D816V).
T3 construct: residues T544-V976 with N-terminal GST fusion; purchased deCODE Biostructures
As to the kind of experiment: c-KIT D816V kinase Assay. It is filed as biochemical. Conditions: enzymatic assay, ATP 200 uM. The essentials: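 Coupled assay in which NADH oxidation was tracked as decreasing absorbance at 340 nm, continuously for 5 hours at 30 °C after adding serially diluted compound. Enzyme: cKit residues T544-V976 with N-terminal tag, GST fusion and TEV cleavage site.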

T3 sequence (P10721 544-976 D816V): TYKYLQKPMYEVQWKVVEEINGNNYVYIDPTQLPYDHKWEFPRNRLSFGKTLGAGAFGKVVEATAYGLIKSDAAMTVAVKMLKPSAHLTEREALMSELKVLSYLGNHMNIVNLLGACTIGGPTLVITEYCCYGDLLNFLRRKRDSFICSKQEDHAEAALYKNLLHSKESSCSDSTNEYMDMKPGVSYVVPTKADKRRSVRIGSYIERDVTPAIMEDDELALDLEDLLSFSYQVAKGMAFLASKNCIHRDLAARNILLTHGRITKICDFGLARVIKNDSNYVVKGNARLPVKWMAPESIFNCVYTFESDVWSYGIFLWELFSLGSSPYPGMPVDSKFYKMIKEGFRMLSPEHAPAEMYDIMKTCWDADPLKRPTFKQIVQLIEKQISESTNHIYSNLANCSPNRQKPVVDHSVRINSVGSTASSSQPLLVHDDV
T1 sequence (P10721 544-976 T670I): as the sequence (P10721 544-976 D816V) above, with T127I, V273D counted along it
Chain of c-KIT kinase (P10721 544-976): as the sequence (P10721 544-976 D816V) above, with V273D counted along it
T2 sequence (P10721 26-976 K642E): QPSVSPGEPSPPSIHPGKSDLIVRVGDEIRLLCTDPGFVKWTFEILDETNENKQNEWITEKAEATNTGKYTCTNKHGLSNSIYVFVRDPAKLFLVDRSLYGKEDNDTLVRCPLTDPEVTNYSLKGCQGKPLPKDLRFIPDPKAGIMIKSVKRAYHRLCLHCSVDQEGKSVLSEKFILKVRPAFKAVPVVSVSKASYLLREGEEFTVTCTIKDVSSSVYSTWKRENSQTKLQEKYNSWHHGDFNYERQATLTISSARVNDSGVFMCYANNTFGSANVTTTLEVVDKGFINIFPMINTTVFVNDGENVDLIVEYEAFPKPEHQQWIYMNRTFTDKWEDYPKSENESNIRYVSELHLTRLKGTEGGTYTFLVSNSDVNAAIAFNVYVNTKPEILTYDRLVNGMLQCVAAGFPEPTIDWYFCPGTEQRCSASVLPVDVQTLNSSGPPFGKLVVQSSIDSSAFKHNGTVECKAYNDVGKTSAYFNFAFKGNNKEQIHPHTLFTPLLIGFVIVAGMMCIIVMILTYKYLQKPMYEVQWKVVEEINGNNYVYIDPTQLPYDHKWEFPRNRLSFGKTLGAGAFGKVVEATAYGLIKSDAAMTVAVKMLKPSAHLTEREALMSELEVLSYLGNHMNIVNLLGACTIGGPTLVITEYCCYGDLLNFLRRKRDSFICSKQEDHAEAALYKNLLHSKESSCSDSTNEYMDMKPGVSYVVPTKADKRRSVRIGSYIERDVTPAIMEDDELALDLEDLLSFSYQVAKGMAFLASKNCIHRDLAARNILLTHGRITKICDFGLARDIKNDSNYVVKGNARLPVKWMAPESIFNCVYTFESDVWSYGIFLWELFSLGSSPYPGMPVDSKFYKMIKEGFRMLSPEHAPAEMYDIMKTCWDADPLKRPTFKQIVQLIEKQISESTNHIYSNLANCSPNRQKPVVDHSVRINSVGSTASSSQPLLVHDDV

With `CCn1c(=O)c(-c2cc(NC(=O)Nc3cccc(F)c3)c(F)cc2C)cc2cnc(NC)cc21` [Example 44, 1-(5-(1-ethyl-7-(methylamino)-2-oxo-1,2-dihydro-1,6-naphthyridin-3-yl)-2-fluoro-4-methylphenyl)-3-(3-fluorophenyl)urea], the IC50 is 10 to 100 nM with Phospho-KIT (Tyr719) [1]; 10 to 100 nM on c-KIT T670I kinase; 10 to 100 nM at Phospho-KIT (Tyr719) [2]; less than 10 nM on c-KIT kinase; less than 10 nM with Phospho-KIT (Tyr719) [3]; 10 to 100 nM on c-KIT D816V kinase.

Consider `CCn1c(=O)c(-c2cc(NC(=O)Nc3cccc(F)c3)c(F)cc2Br)cc2cnc(NC)cc21` [Example 50, 1-(4-bromo-5-(1-ethyl-7-(methylamino)-2-oxo-1,2-dihydro-1,6-naphthyridin-3-yl)-2-fluorophenyl)-3-(3-fluorophenyl)urea], for which the IC50 with Phospho-KIT (Tyr719) [1] is 100 to 1000 nM; on c-KIT T670I kinase it was 10 to 100 nM; on Phospho-KIT (Tyr719) [2], 10 to 100 nM; at c-KIT kinase it was less than 10 nM; in the assay on Phospho-KIT (Tyr719) [3], less than 10 nM; at c-KIT D816V kinase, 10 to 100 nM.

On to `CCn1c(=O)c(-c2cc(NC(=O)Nc3ccccc3)c(F)cc2Br)cc2cnc(NCCOC)cc21` [Example 51, 1-(4-bromo-5-(1-ethyl-7-(2-methoxyethylamino)-2-oxo-1,2-dihydro-1,6-naphthyridin-3-yl)-2-fluorophenyl)-3-phenylurea], for which the IC50 in the assay on Phospho-KIT (Tyr719) [1] is 100 to 1000 nM; at c-KIT T670I kinase, more than 1000 nM; on Phospho-KIT (Tyr719) [2], 10 to 100 nM; on c-KIT kinase, 10 to 100 nM; in the assay with Phospho-KIT (Tyr719) [3], 10 to 100 nM; at c-KIT D816V kinase, 100 to 1000 nM.

Regarding `CCn1c(=O)c(-c2cc(NC(=O)Nc3ccccc3)c(F)cc2Cl)cc2cnc(NC(C)=O)cc21` [Example 54, 1-(5-(7-acetamido-1-ethyl-2-oxo-1,2-dihydro-1,6-naphthyridin-3-yl)-4-chloro-2-fluorophenyl)-3-phenylurea], the IC50 in the assay on Phospho-KIT (Tyr719) [1] is 10 to 100 nM; on c-KIT T670I kinase it was 10 to 100 nM; on Phospho-KIT (Tyr719) [2], 10 to 100 nM; on c-KIT kinase, less than 10 nM; with Phospho-KIT (Tyr719) [3] it was 10 to 100 nM; at c-KIT D816V kinase, less than 10 nM.

As for `CCn1c(=O)c(-c2cc(NC(=O)Nc3cc(F)cc(F)c3)c(F)cc2Cl)cc2cnc(NC)cc21` [Example 55, 1-(4-chloro-5-(1-ethyl-7-(methylamino)-2-oxo-1,2-dihydro-1,6-naphthyridin-3-yl)-2-fluorophenyl)-3-(3,5-difluorophenyl)urea], the IC50 in the assay on Phospho-KIT (Tyr719) [1] is more than 1000 nM; at c-KIT T670I kinase, 10 to 100 nM; on Phospho-KIT (Tyr719) [2] it was 10 to 100 nM; on c-KIT kinase, 10 to 100 nM; in the assay on Phospho-KIT (Tyr719) [3] it was 10 to 100 nM; at c-KIT D816V kinase, 10 to 100 nM.

Take `CCn1c(=O)c(-c2cc(NC(=O)Nc3ccccc3)c(F)cc2Br)cc2cnc(N)cc21` [Example 57, 1-(5-(7-amino-1-ethyl-2-oxo-1,2-dihydro-1,6-naphthyridin-3-yl)-4-bromo-2-fluorophenyl)-3-phenylurea]: the IC50 in the assay with Phospho-KIT (Tyr719) [1] is 100 to 1000 nM; on c-KIT T670I kinase, less than 10 nM; on Phospho-KIT (Tyr719) [2], 100 to 1000 nM; on c-KIT kinase, less than 10 nM; in the assay with Phospho-KIT (Tyr719) [3], 10 to 100 nM; on c-KIT D816V kinase, 100 to 1000 nM.

Consider `CCn1c(=O)c(-c2cc(NC(=O)Nc3cccc(F)c3)c(F)cc2C)cc2cnc(N)cc21` [Example 58, 1-(5-(7-amino-1-ethyl-2-oxo-1,2-dihydro-1,6-naphthyridin-3-yl)-2-fluoro-4-methylphenyl)-3-(3-fluorophenyl)urea], for which the IC50 was 100 to 1000 nM with Phospho-KIT (Tyr719) [1]; 10 to 100 nM at c-KIT T670I kinase; 100 to 1000 nM on Phospho-KIT (Tyr719) [2]; less than 10 nM on c-KIT kinase; 10 to 100 nM with Phospho-KIT (Tyr719) [3]; 10 to 100 nM at c-KIT D816V kinase.

For `CCn1c(=O)c(-c2cc(NC(=O)Nc3csc4ccccc34)c(F)cc2C)cc2cnc(NC)cc21` [Example 59, 1-(benzo[b]thiophen-3-yl)-3-(5-(1-ethyl-7-(methylamino)-2-oxo-1,2-dihydro-1,6-naphthyridin-3-yl)-2-fluoro-4-methylphenyl)urea], the IC50 in the assay with Phospho-KIT (Tyr719) [1], on c-KIT T670I kinase, on Phospho-KIT (Tyr719) [2], on c-KIT kinase, with Phospho-KIT (Tyr719) [3] and on c-KIT D816V kinase was 10 to 100 nM in each case.

With `CCn1c(=O)c(-c2cc(NC(=O)Nc3cc(F)cc(F)c3)c(F)cc2Cl)cc2cnc(NC(C)=O)cc21` [Example 67, N-(3-(2-chloro-5-(3-(3,5-difluorophenyl)ureido)-4-fluorophenyl)-1-ethyl-2-oxo-1,2-dihydro-1,6-naphthyridin-7-yl)acetamide], the IC50 in the assay with Phospho-KIT (Tyr719) [1] was less than 10 nM; at c-KIT T670I kinase it was less than 10 nM; at Phospho-KIT (Tyr719) [2], 10 to 100 nM; on c-KIT kinase it was 10 to 100 nM; with Phospho-KIT (Tyr719) [3], less than 10 nM; at c-KIT D816V kinase, less than 10 nM.

Turning to `CCn1c(=O)c(-c2cc(NC(=O)Nc3ccccc3)c(F)cc2Cl)cc2cnc(NC(=O)N(C)C)cc21` [Example 70, 3-(3-(2-chloro-4-fluoro-5-(3-phenylureido)phenyl)-1-ethyl-2-oxo-1,2-dihydro-1,6-naphthyridin-7-yl)-1,1-dimethylurea], the IC50 was 10 to 100 nM in the assay on Phospho-KIT (Tyr719) [1]; less than 10 nM at c-KIT T670I kinase; 10 to 100 nM on Phospho-KIT (Tyr719) [2]; less than 10 nM at c-KIT kinase; less than 10 nM in the assay with Phospho-KIT (Tyr719) [3]; less than 10 nM at c-KIT D816V kinase.

`CCn1c(=O)c(-c2cc(NC(=O)Nc3ccccc3)c(F)cc2Cl)cc2cnc(NC(=O)OC)cc21` [Example 73, methyl (3-(2-chloro-4-fluoro-5-(3-phenylureido)phenyl)-1-ethyl-2-oxo-1,2-dihydro-1,6-naphthyridin-7-yl)carbamate]: the IC50 is 10 to 100 nM in the assay on Phospho-KIT (Tyr719) [1]; 10 to 100 nM at c-KIT T670I kinase; 10 to 100 nM at Phospho-KIT (Tyr719) [2]; 10 to 100 nM at c-KIT kinase; 10 to 100 nM in the assay on Phospho-KIT (Tyr719) [3]; less than 10 nM on c-KIT D816V kinase.

Regarding `CNc1cc2c(cn1)cc(-c1cc(NC(=O)Nc3cccc(F)c3)c(F)cc1Cl)c(=O)n2C(C)C` [Example 77, 1-(4-chloro-2-fluoro-5-(1-isopropyl-7-(methylamino)-2-oxo-1,2-dihydro-1,6-naphthyridin-3-yl)phenyl)-3-(3-fluorophenyl)urea], the IC50 in the assay on Phospho-KIT (Tyr719) [1] is 10 to 100 nM; on c-KIT T670I kinase, 100 to 1000 nM; on Phospho-KIT (Tyr719) [2], 10 to 100 nM; on c-KIT kinase, less than 10 nM; in the assay on Phospho-KIT (Tyr719) [3], 10 to 100 nM; at c-KIT D816V kinase, less than 10 nM.

Consider `CCn1c(=O)c(-c2cc(NC(=O)Nc3ccccc3)c(F)cc2Cl)cc2cnc(NC(=O)N3CC(O)C3)cc21` [Example 81, N-(3-(2-chloro-4-fluoro-5-(3-phenylureido)phenyl)-1-ethyl-2-oxo-1,2-dihydro-1,6-naphthyridin-7-yl)-3-hydroxyazetidine-1-carboxamide], for which the IC50 in the assay with Phospho-KIT (Tyr719) [1] is 10 to 100 nM; on c-KIT T670I kinase, 10 to 100 nM; on Phospho-KIT (Tyr719) [2], 10 to 100 nM; on c-KIT kinase, less than 10 nM; in the assay with Phospho-KIT (Tyr719) [3], 10 to 100 nM; at c-KIT D816V kinase it was 10 to 100 nM.
